Measurements reported in patent US5260276A, “Linear and monocyclic endothelin antagonists” (Warner-Lambert Company, priority 1991, dated 1993).
Where a SMILES comes first, the peptide text is derived from it. Bridges are numbered along the chain shown (N, C = ends). Where no end group is shown, it is not given here. [ ]: non-standard residue; d: D form. Ava = NCCCCC(=O)O

How the values were obtained:
[1] = biological target: endothelin receptor ([125I]-ET-1 binding), rat heart ventricle; experiment: Inhibition of [125I]-ET-1 binding in a receptor assay, rat heart ventricle; settings: [125I]-ET-1, rat heart ventricle 10 μg, 37° C., 2 hours
Method: The compounds of Formula I are valuable antagonists of endothelin. […] Thus, the compounds of Formula I were tested for their ability to inhibit [^125 I]-ET-1([^125 I]-Endothelin-1) binding in a receptor assay. The binding of the compounds of Formula I is determined by incubation (37° C., 2 hours) of a compound of Formula I with [^125 I]-ET-1 and the tissue (rat heart ventricle (10 μg)) in 50 mM Tris(hydroxymethyl)aminomethane hydrochloride (Tris-HCl) (pH 7.4), 5 mM ethylenediamine tetraacetic acid (EDTA), 2 mM ethylene glycol bis(β-aminoethyl ether)N,N,N',N'-tetraacetic acid (EGTA), 100 μM phenylmethylsulfonyl fluoride (PMSF), and 100 μM bacitracin containing protease inhibitors (total volume of 0.5 mL). IC50 values are calculated by weighing nonlinear regression curve-fitting to the mass-action (Langmuir) equation. The functional activity of compounds of Formula I is determined in Rat-1 cells by measuring intracellular levels of second messengers. Thus, cells are prelabeled with [^3 H]-inositol and endothelin-stimulated accumulation of total [^3 H]-inositol phosphates in the presence of Li^+ is monitored using anion exchange chromatography as described by Muldoon, L. L., et al, Journal of Biological Chemistry, Volume 264, pages 8529-8536 (1989) and Dudley, D. T., et al, Molecular Pharmacology, Volume 38, pages 370-377 (1990). Antagonist activity is assessed as the ability of added compounds to reduce endothelin stimulated inositol phosphate accumulation. The data in the table show the endothelin antagonist activity of representative compounds of Formula I.

[2] = system: ET receptor, selected tissues; settings: relative to ET-1; cited from earlier work

IC50 [1] [nM]	Molecule	fold less functional activity [2]
1800	CC[C@H](C)[C@H](NC(=O)[C@H](CC(=O)O)NC(=O)[C@H](CC(C)C)NC(=O)[C@H](Cc1c[nH]cn1)NC(=O)[C@@H]1CSSC[C@H](N)C(=O)N[C@@H](CO)C(=O)NCCCCC(=O)N[C@@H](C(C)C)C(=O)N[C@@H](Cc2ccc(O)cc2)C(=O)N[C@@H](Cc2ccccc2)C(=O)N1)C(=O)N[C@H](C(=O)N[C@@H](Cc1c[nH]c2ccccc12)C(=O)O)[C@@H](C)CC [Example 5] (H-CS[Ava]VYFCHLDIIW-OH; disulfide 1-7; N-terminus and C-terminus assumed)	
3200	CC[C@H](C)[C@H](NC(=O)[C@H](CC(=O)O)NC(=O)[C@H](CC(C)C)NC(=O)[C@H](Cc1c[nH]cn1)NC(=O)[C@@H]1CSSC[C@H](N)C(=O)N[C@@H](CO)C(=O)N[C@@H](CC(=O)O)C(=O)N[C@@H](CC(C)C)C(=O)N[C@@H](CCC(=O)O)C(=O)N[C@@H](C(C)C)C(=O)N[C@@H](Cc2ccc(O)cc2)C(=O)N[C@@H](Cc2ccccc2)C(=O)N1)C(=O)N[C@H](C(=O)N[C@@H](Cc1c[nH]c2ccccc12)C(=O)O)[C@@H](C)CC [Example 10] (H-CSDLEVYFCHLDIIW-OH; disulfide 1-9)	
2600	CC[C@@H](C)[C@@H](NC(=O)[C@@H](NC(=O)[C@H](CC(=O)O)NC(=O)[C@H](CC(C)C)NC(=O)[C@H](Cc1c[nH]cn1)NC(=O)[C@@H]1CSSC[C@H](N)C(=O)N[C@@H](CO)C(=O)N[C@@H](CO)C(=O)N[C@@H](CO)C(=O)N[C@@H](C(C)C)C(=O)N[C@@H](Cc2ccc(O)cc2)C(=O)N[C@@H](Cc2ccccc2)C(=O)N1)[C@@H](C)CC)C(=O)N[C@@H](Cc1c[nH]c2ccccc12)C(=O)O [Example 14] (H-CSSSVYFCHLDI[dI]W-OH; disulfide 1-8; N-terminus assumed)	
	ET[1-20]: endothelin-1 fragment 1-20, lacking the C-terminal amino acid Trp-21 (CSCSSLMDKECVYFCHLDII; ends and bridges not checked; cysteine pairing not given here; UniProt P05305 53-72, looked up, fragment)	approximately 1000 fold
